Measurements: patent US4048334A, “Active derivatives of methylamino in therapeutic compositions and methods of use” (priority 1974, dated 1977)

Tests used:
[1] = test system: neuroleptic-induced catatonia; test: Suppression of neuroleptic-induced catatonia (curative treatment, prochlorperazine); assay type: in vivo, rat (male, OFA strain); details: 80 mg/kg oral
Experimental: b. Suppression of neuroleptic-induced catatonia
Batches of 5 male rats of the OFA strain were given 12.5 mg/kg of prochlorperazine by intraperitoneal route. Fifty-five minutes later, an oral dose in aqueous solution of the compound to be studied was administered to all the animals with the exception of the control group. The progress of the catatonia was noted following the same scale as that used in the tests described above.

[2] = test system: reserpine-induced catatonia; test: Suppression of reserpine-induced catatonia (curative treatment); assay type: in vivo, rat (male, OFA strain); set-up: key to catatonia score (maximum 5 per batch): number of animals (of 5) still in catatonia; max 5 per batch; details: 80 mg/kg oral
Experimental: a. Suppression of reserpine-induced catatonia
Batches of 5 male rats of the OFA strain, weighing 150 to 200 g were given 5 mg/kg of reserpine by intraperitoneal route. One hour and 45 minutes later, namely when the animals were in a state of catatonia, an aqueous dose of the compound to be studied was administered by oral route to all the animals with the exception of the control group.
The progress of the catatonia was then noted following the scale used in the tests described hereabove.
The maximum score was thus 5 per batch which means that all the animals of the batch were considered to be still in a state of catatonia.

[3] = test system: peripheral noradrenergic phenomena (arterial pressure, nictitating membrane); test: Influence on peripheral noradrenergic phenomena (norepinephrine, arterial pressure and nictitating membrane)
catalepsy = test: Inhibition of catalepsy (crossing of homolateral paws, prochlorperazine); assay type: in vivo, rat; details: Rattus norvegicus, po, read-out: dose necessary to induce complete inhibition of the catalepsy; prochlorperazine catalepsy
Experimental: Additional trials were carried out on rats with Compound 1 and amantadine. These trials involved catalepsy as evidenced by the crossing of the animals' homolateral paws.

[4] = test system: peripheral noradrenergic phenomena (arterial pressure, nictitating membrane); details: cat, in vivo
[5] = test system: reserpine-induced catatonia; test: Inhibition of reserpine-induced catatonia; assay type: in vivo, rat (male, OFA strain)
Experimental: 1. Inhibition of reserpine-induced catatonia
After sufficient doses of reserpine have been administered to the rat, a series of symptoms occur, more particularly ptosis, catatonia and a drop in central temperature. These symptoms are caused by the depletion of the intragranular reserve pool of boigenetic amines at the synaptic terminals.
An oral dose of the compound to be studied in aqueous solution was administered to batches of 10 male rats of the OFA strain weighing about 150 to 200 g. Thirty minutes later a dose of 5 mg/kg of reserpine was given by intraperitoneal route. Three hours after the injection of reserpine, the animals were suspended by the four paws to a horizontally stretched wire fixed at 15 cm from the ground. The catatonic animals were those which maintained the position so given for at least 30 seconds. […] The maximum score was therefore 10 per batch. An identical trial was undertaken with control animals which received reserpine but none of the compounds being studied.

electrocardiogram = test: Effect on the electrocardiogram; assay type: in vivo; details: dog, 5 mg/kg injected
[6] = test system: neuroleptic-induced catatonia; test: Inhibition of neuroleptic-induced catatonia (prochlorperazine); assay type: in vivo, rat (male, OFA strain)
Experimental: 2. Inhibition of neuroleptic-induced catatonia
The blocking of dopaminergic receptors by neuroleptics in the extra-pyramidal system induces catatonia in the rat. Catatonia is differentiated from sedative properties by means of the test used hereabove for reserpine-induced catatonia. The same system of scoring was also employed in the present case.
An oral dose of the compound to be studied in aqueous solution was administered to batches of 10 male rats of the OFA strain weighing about 150 to 200 g. […] Three hours after the injection of this latter compound, catatonia was measured. An identical trial was also carried out with control animals which received prochlorperazine but none of the compounds under study.
The scoring system, used was that given hereabove in Table I.

[7] = test system: tremorine-induced cholinergic effects; test: Anti-tremorine test (cholinolytic properties in vivo); set-up: species or system mice (male, OF1 strain); key to peripheral cholinergic effects score (salivation, sweating, weeping): 0: no action; 1: slight action; 2: average action; 3: strong action; 4: very strong action
Experimental: For this purpose, the following test was performed with a view to determining the anti-tremorine properties of Compound 1.
When injected into mice, tremorine produces peripheral effects i.e. weeping, sweating, salivation and diarrhoea and central effects i.e. tremor and akinesia. Such effects are due to an increase in the amount of intracerebral acetylcholine and serotonine.
Male mice of the OF1 strain weighing about 22 g were divided into batches of 10. […] Thirty minutes later a dose of 10 mg/kg of tremorine was injected by intraperitoneal route and, at different times after this injection, note was taken of the cholinergic effects on each animal in accordance with the following scale: […]

[8] = Toxico-pharmacological index (LD50 / effective dose in catatonia); details: in vivo
in vivo = details: mouse, mice, oral, aqueous solution, 10 days observation
[9] = test system: reserpine-induced and neuroleptic-induced catatonia; test: Toxico-pharmacological index (LD50 / effective dose in catatonia); details: ED20-30: 20 to 30% inhibition of the catatonia
[10] = SPERBER et al., J. Amer. Chem. Soc., 71, 3352 (1949); cited from earlier work
[11] = 20 mg/kg oral, 30 min before reserpine
[12] = 20 mg/kg oral, 30 min before prochlorperazine

With `NC12CC3CC(CC(C3)C1)C2` [Amantadine, 1-amino-adamantane] the “catatonia score (5 rats per batch)” value ([1]; 1h30 after prochlorperazine) was 5, the “catatonia score (5 rats per batch)” value ([1]; 2h30 after prochlorperazine) was 2 and the “catatonia score (5 rats per batch)” value ([1]; 3h30 after prochlorperazine) was 0. The “catatonia score (5 rats per batch)” value ([1]; 3h after prochlorperazine) was 1, the “catatonia score (5 rats per batch)” value ([1]; 4h after prochlorperazine) was 0 and the “catatonia score (5 rats per batch)” value ([1]; 5h after prochlorperazine) was 0. For the same compound, the “catatonia score (maximum 5 per batch)” value ([2]; 2h15 after reserpine) was 4, the “catatonia score (maximum 5 per batch)” value ([2]; 2h30 after reserpine) was 3 and the “catatonia score (maximum 5 per batch)” value ([2]; 3h30 after reserpine) was 1. The “catatonia score (maximum 5 per batch)” value ([2]; 2h after reserpine) was 5, the “catatonia score (maximum 5 per batch)” value ([2]; 3h after reserpine) was 2 and the “catatonia score (maximum 5 per batch)” value ([2]; 4h after reserpine) was 0. The “catatonia score (maximum 5 per batch)” value ([2]; 5h after reserpine) was 0, the “Contractile reaction of the nictitating membrane with electric stimulation” value (“Contractile reaction … with electric stimulation” below) ([3]; cumulative dose 0.1 mg/kg i.v.) was 20 mm and the “Contractile reaction of the nictitating membrane without electric stimulation” value ([3]; cumulative dose 0.1 mg/kg i.v.) was 0 mm. The “Increase in arterial pressure after injection of norepinephrine” value (from here on “Increase in arterial pressure”) ([3]; cumulative dose 0.1 mg/kg i.v.) was 29 mm Hg, the “Contractile reaction … with electric stimulation” value ([3]; cumulative dose 1 mg/kg i.v.) was 20 mm and the “Contractile reaction of the nictitating membrane without electric stimulation” value ([3]; cumulative dose 1 mg/kg i.v.) was 3 mm. The “Increase in arterial pressure” value ([3]; cumulative dose 1 mg/kg i.v.) was 35 mm Hg, the “Contractile reaction … with electric stimulation” value ([3]; cumulative dose 3 mg/kg i.v.) was 16 mm and the “Contractile reaction of the nictitating membrane without electric stimulation” value ([3]; cumulative dose 3 mg/kg i.v.) was 4.4 mm. The “Increase in arterial pressure” value ([3]; cumulative dose 3 mg/kg i.v.) was 35 mm Hg, the “Contractile reaction … with electric stimulation” value ([3]; cumulative dose 5 mg/kg i.v.) was 10 mm and the “Contractile reaction of the nictitating membrane without electric stimulation” value ([3]; cumulative dose 5 mg/kg i.v.) was 5.9 mm. For the same compound, the “Increase in arterial pressure” value ([3]; cumulative dose 5 mg/kg i.v.) was 59 mm Hg, the “Contractile reaction … with electric stimulation” value ([3]; cumulative dose 10 mg/kg i.v.) was 4 mm and the “Contractile reaction of the nictitating membrane without electric stimulation” value ([3]; cumulative dose 10 mg/kg i.v.) was 7.5 mm. The “Increase in arterial pressure” value ([3]; cumulative dose 10 mg/kg i.v.) was 57 mm Hg, the ganglioplegic action ([3]; in vivo) was “exerts a ganglioplegic action” and the “own effect on contractile reaction of the nictitating membrane” value ([3]; in vivo) was “stimulates the contractile reaction of the nictitating membrane”. The “potentiation of (peripheral) effects of norepinephrine” value ([3]; in vivo) was “potentiates the peripheral adrenergic effects”, the “potentiation of the effects of the electric stimulation” value ([3]; in vivo) was “does not potentiate the effects of the electric stimulation” and the ED100 (catalepsy) was 80 mg/kg. The “dose from which exogenous norepinephrine is potentiated” value [4] was at least 1 mg/kg, the “dose from which ganglioplegic properties are shown” value [4] was at least 5 mg/kg and the “Inhibition of reserpine-induced catatonia” value ([5]; 100 mg/kg oral, 30 min before reserpine) was 4 (100% inhibition of catatonia in comparison with the controls (namely a score of 0 per studied batch)). The “effect on the electrocardiogram” value (electrocardiogram) was “cardiac arrhythmia due to ventricular extrasystoles”, the “Inhibition of the neuroleptic-induced catatonia” value ([6]; 100 mg/kg oral, 30 min before prochlorperazine) was 4 (100% inhibition of catatonia in comparison with the controls (namely a score of 0 per studied batch)) and the “peripheral cholinergic effects score (salivation, sweating, weeping)” value ([7]; 40 mg/kg oral, 20, 30 and 40 minutes after tremorine 10 mg/kg i.p.) was 4. The “central cholinergic effects (normal and provoked tremor)” value ([7]; 40 mg/kg oral, identical to the peripheral score (4)) was “Identical results” and the antitremorine properties ([7]; mouse, in vivo) was “devoid of antitremorine properties”.

With `CCCC(N)(CC)CCC` [Compound 2, 1-Ethyl-1-n-propyl-n-butylamine] the selectivity ratio [8] was 25, the LD50 at 240 h (in vivo) was 150 mg/kg and the “Inhibition of reserpine-induced catatonia” value ([5]; 5 mg/kg oral, 30 min before reserpine 5 mg/kg i.p.) was 1 (20 to 30% inhibition of catatonia in comparison with the controls (namely a score of 7 to 8 per studied batch)). The “Inhibition of the neuroleptic-induced catatonia” value ([6]; 5 mg/kg oral, 30 min before prochlorperazine 12.5 mg/kg i.p.) was 1 (20 to 30% inhibition of catatonia in comparison with the controls (namely a score of 7 to 8 per studied batch)).

In the case of `CCCC(C)(N)CC(C)CC` (stereo not shown) [Compound 6, 1,3-Dimethyl-1-n-propyl-n-pentylamine], the “Index LD50/ED20-30” value [9] is reported as over 25, the LD50 at 240 h (in vivo) is reported as over 500 mg/kg and the “Inhibition of reserpine-induced catatonia” value [5, 11] is reported as 1 (20 to 30% inhibition of catatonia in comparison with the controls (namely a score of 7 to 8 per studied batch)). The “Inhibition of the neuroleptic-induced catatonia” value [6, 12] was 1 (20 to 30% inhibition of catatonia in comparison with the controls (namely a score of 7 to 8 per studied batch)).

In the case of `CCCCCC(C)(N)CCC` (stereo not shown) [Compound 9, 1-Methyl-1-n-propyl-n-hexylamine], the “Index LD50/ED20-30” value [9] is reported as 87, the LD50 at 240 h (in vivo) is reported as 1750 mg/kg and the “Inhibition of reserpine-induced catatonia” value [5, 11] is reported as 1 (20 to 30% inhibition of catatonia in comparison with the controls (namely a score of 7 to 8 per studied batch)). The “Inhibition of the neuroleptic-induced catatonia” value [6, 12] was 1 (20 to 30% inhibition of catatonia in comparison with the controls (namely a score of 7 to 8 per studied batch)).

In the case of `CCCCC(N)(CCCC)CCCC` [Compound 12, 1,1-Di-n-butyl-n-pentylamine], the “Index LD50/ED20-30” value [9] is reported as 25, the LD50 at 240 h (in vivo) is reported as 500 mg/kg and the “Inhibition of reserpine-induced catatonia” value [5, 11] is reported as 1 (20 to 30% inhibition of catatonia in comparison with the controls (namely a score of 7 to 8 per studied batch)). For the same compound, the “Inhibition of the neuroleptic-induced catatonia” value [6, 12] was 1 (20 to 30% inhibition of catatonia in comparison with the controls (namely a score of 7 to 8 per studied batch)) and the “spasmolytic activity and toxicity versus corresponding trialkylethylamines” value [10] was “less spasmolytic and more toxic than the corresponding trialkylethylamines”.
